Source: PMC11345829, “Discovery of Potent Isoquinolinequinone N-Oxides to Overcome Cancer Multidrug Resistance” (Journal of Medicinal Chemistry, 2024)
Where two headings read alike, the source gives them in different places.

How the values were obtained:
[1] = tested on: NCI60 tumor cell line panel; test: NCI60 five-dose screen, mean over panel; format: cell-based, human
Description: (§1) The concentration−response curve generated enables the determination of three criteria, GI50 (drug concentration at which 50% of cell growth is inhibited), total growth inhibition (TGI) and LC50 (drug concentration at which 50% of tumor cells are killed) which can be used to compare effectiveness against any compound tested in the screen since its inception.
(§2) S2.1 NCI Screening Assay Experimental details
(§3) NCI Screening Assay Experimental: Cancer cell growth assays (NCI60 screening) 5,6 One-dose study: Tested compounds were initially solubilised in DMSO, diluted into RPMI 1640 and 5% fetal bovine serum/L-glutamine, and added to 96-well plates containing cell lines previously cultured for 24 h. After 48 h incubation, the media were removed, and the cells were fixed and stained with sulforhodamine B to determine overall percent growth/ total protein content. Unbound dye was removed with five washes of 1% acetic acid, and the plates were allowed to air dry. The dye was then resolubilised in Tris buffer, and the colorimetric absorbance was measured (515 nm). Growth inhibition was measured relative to the response generated from proliferating cells cultured under identical conditions for 48 h. Data from one-dose experiments pertains to the percentage growth at […]
(§4) Five-dose study: Serial 5 × 10-fold dilution from an initial DMSO stock solution was performed, prior to incubation at each individual concentration (10 nM, 100 nM, 1 μM, 10 μM and 100 μM). Using seven absorbance measurements (time zero (Tz), control growth (C), and test growth in the presence of drug at the five concentration levels (Ti)), the percentage growth was calculated at each of the drug concentrations levels. Percentage growth inhibition was calculated as: [(Ti − Tz)/(C − Tz)] × 100 for concentrations for which Ti ≥ Tz, [(Ti − Tz)/Tz] × 100 for concentrations for which Ti < Tz. Three dose response parameters were calculated for each experimental agent. […]
(§5) was calculated from [(Ti − Tz)/(C − Tz)] × 100 = 50, which is the drug concentration resulting in a 50% reduction in the net protein increase (as measured by sulforhodamine B staining) in control cells during the drug incubation. The drug concentration resulting in total growth inhibition (TGI) was calculated from Ti = Tz. The LC50 (concentration of drug resulting in a 50% reduction in the measured protein at the end of the drug treatment as compared to that at the beginning) indicating a net loss of cells following treatment was calculated from [(Ti − Tz)/Tz] × 100 = −50. Values were calculated for each of these three parameters if the level of activity was reached; however, if the effect was not reached or was exceeded, the value for that parameter was expressed as greater or less than the maximum or minimum concentration tested.

NCI-H460 = test: NCI60 five-dose GI50 (NCI data); format: cell-based; details: Homo sapiens, NCI data provided for comparison, read-out: NSCLC NCI-H460 GI50 (NCI)
Description: as §1, §2, §3, §4, §5

NCI-H460/R = test: SRB cell growth inhibition assay; format: cell-based, human; details: for selectivity ratio NSCLC: GI50 sensitive NCI-H460 / GI50 MDR NCI-H460/R; for GI50: Homo sapiens, NCI-H460, 48 h, NSCLC MDR, mean ± SEM; for GI50 / GI50 concentration range against MDR NCI-H460/R: SRB assay; for GI50 concentration range against MDR NCI-H460/R: in words
Protocol: Two distinct pairs of counterpart drug-sensitive and MDR human tumor cell lines were used, namely the non-small lung cancer (NSCLC) NCI-H460 (same cell line as in the NCI screen) and its MDR counterpart cell line NCI-[…] and the colorectal cancer DLD1 and its MDR counterpart cell line DLD1-TxR (Table 3). The screening was performed using the SRB assay, and the GI50 for each compound was determined by interpolation on the attained concentration-response curves and compared with NCI60 screening data (SI, Figures S62-S63; Table S21). Two pairs of drug-sensitive and multidrug-resistant (MDR) cell lines from human nonsmall cell lung cancer (NSCLC), NCI-H460 and NCI-[…], and colorectal cancer, DLD1 and DLD1-TxR, kindly provided by Dr M. […] The A549 cell line was maintained in Dulbecco's Modified Eagle Medium (DMEM) supplemented with 4.5 g/L Glucose with UltraGlutamine with sodium pyruvate (Lonza, Basel Stücki, Switzerland), enriched with 10% fetal bovine serum (FBS; Biowest, Nuaillé, France). […] For the sulforhodamine B (SRB) and 3D cell culture assays, the media were supplemented with 5% FBS. The remaining experiments were performed with medium supplemented with 10% FBS. […] The SRB assay was performed as previously described.[78],[79] Briefly, after fixing cells with 10% (w/v) ice-cold trichloroacetic acid (Merck Life Science), the proteins were stained with 0.4% of SRB (Merck Life Science) in acetic acid (Merck Life Science). Following washing steps in acetic acid, the bound dye was solubilized with 10 mM Tris base solution (Merck Life Science). Absorbance was measured at 510 nm in a multiplate reader (Synergy Mx, Biotek Instruments Inc., Winooski, Vermont, USA) using the Gen5 software (Biotek Instruments Inc.).

COLO-205 = test: NCI60 five-dose GI50; format: cell-based; details: Homo sapiens, colon
Description: as §1, §2, §3, §4, §5

K-562 = test: NCI60 five-dose GI50; format: cell-based; details: Homo sapiens, K562, five dose; leukemia
Description: as §1, §2, §3, §4, §5

LOX-IMVI = test: NCI60 five-dose GI50; format: cell-based; details: Homo sapiens, melanoma
Description: as §1, §2, §3, §4, §5

MCF-7 = test: NCI60 five-dose GI50; format: cell-based; details: Homo sapiens, MCF7, breast
Description: as §1, §2, §3, §4, §5

NCI-ADR/RES = test: NCI60 five-dose GI50; format: cell-based; details: Homo sapiens
Description: as §1, §2, §3, §4, §5

OVCAR-3 = test: NCI60 five-dose GI50; format: cell-based; details: Homo sapiens, ovarian
Description: as §1, §2, §3, §4, §5

UACC-62 = test: NCI60 five-dose GI50; format: cell-based; details: Homo sapiens, melanoma
Description: as §1, §2, §3, §4, §5

[2] = Homo sapiens, five dose, across 57-60 cell lines (number given per compound), read-out: Mean of GI50 as Log 10 Concentration (SD) (converted)
[3] = five dose, mean over 52 human tumor cell lines common to all analogues, read-out: mean GI50

Row | SMILES | GI50 (NCI-H460/R) [nM] | GI50 concentration range against MDR NCI-H460/R (NCI-H460/R) | fold more potent average GI50 than 1 ([1]; 2 versus 1) [fold] | GI50 (NCI-H460) [nM] | selectivity ratio NSCLC (NCI-H460/R) | GI50 [1, 2] [nM] | GI50 [1, 3] [nM] | GI50 (COLO-205) [nM] | GI50 (K-562) [nM] | GI50 (LOX-IMVI) [nM] | GI50 (MCF-7) [nM] | GI50 (NCI-ADR/RES; MDR ovarian) [nM] | GI50 (OVCAR-3) [nM] | GI50 (UACC-62) [nM] | share of FDA approved anticancer agents outperformed in mean LC50 ([1]; comparison with ref 45) [%] | share of FDA approved anticancer agents with higher mean GI50 ([1]; comparison with ref 45) [%] | cell lines with ≤200 nM GI50 ([1]; five dose, number of cell lines out of 60) | GI50 (NCI-ADR/RES) [nM]
1 | COC(=O)c1c2c(c(C)[n+]([O-])c1C)C(=O)C=C(NCc1ccccc1)C2=O [Compound 2] | 830 ± 20 | nanomolar range | 2.8 | 2740 | 1.7 |  |  |  |  |  |  |  |  |  |  |  |  | 
2 | COC(=O)c1c2c(c(C)[n+]([O-])c1C)C(=O)C(NCc1ccc(F)cc1)=CC2=O [Compound 4] | 2250 ± 270 |  |  | 792 | 1.2 | 1410 | 1540 | 376 | 2430 | 1940 | 1110 | 1680 | 319 | 1250 |  |  |  | 
3 | COC(=O)c1c2c(c(C)[n+]([O-])c1C)C(=O)C=C(NCc1ccc(F)cc1)C2=O [Compound 5] | 360 ± 110 | nanomolar range |  | 525 | 1.6 | 583 | 760 | 260 | 352 | 226 | 296 | 487 | 240 | 229 |  |  |  | 
4 | COC(=O)c1c2c(c(C)[n+]([O-])c1C)C(=O)C(NCc1ccc(O)cc1)=CC2=O [Compound 20] | 4840 ± 740 |  |  | 1580 | 1.2 | 1310 | 1580 | 579 | 1630 | 938 | 416 | 2200 | 266 | 1360 |  |  |  | 

The next lines start with results.

Row | GI50 (NCI-H460/R) [nM] | GI50 concentration range against MDR NCI-H460/R (NCI-H460/R) | SMILES | fold more potent average GI50 than 1 ([1]; 2 versus 1) [fold] | GI50 (NCI-H460) [nM] | selectivity ratio NSCLC (NCI-H460/R) | GI50 [1, 2] [nM] | GI50 [1, 3] [nM] | GI50 (COLO-205) [nM] | GI50 (K-562) [nM] | GI50 (LOX-IMVI) [nM] | GI50 (MCF-7) [nM] | GI50 (NCI-ADR/RES; MDR ovarian) [nM] | GI50 (OVCAR-3) [nM] | GI50 (UACC-62) [nM] | share of FDA approved anticancer agents outperformed in mean LC50 ([1]; comparison with ref 45) [%] | share of FDA approved anticancer agents with higher mean GI50 ([1]; comparison with ref 45) [%] | cell lines with ≤200 nM GI50 ([1]; five dose, number of cell lines out of 60) | GI50 (NCI-ADR/RES) [nM]
5 | 17900 ± 3360 |  | COC(=O)c1c2c(c[n+]([O-])c1C)C(=O)C=CC2=O [Compound 23] |  | 12800 | 2.1 | 2490 | 2150 | 1850 | 2510 | 1960 | 1650 | 3270 | 320 | 1810 |  |  |  | 
6 | 380 ± 20 | nanomolar range | COC(=O)c1c2c(c[n+]([O-])c1C)C(=O)C(NCc1ccccc1)=CC2=O [Compound 24] |  | 383 | 2 | 579 | 690 | 330 | 620 | 300 | 200 | 310 | 270 | 350 |  |  |  | 
7 | 340 ± 30 | nanomolar range | COC(=O)c1c2c(c[n+]([O-])c1C)C(=O)C=C(NCc1ccccc1)C2=O [Compound 25] |  | 210 | 1 | 190 | 210 | 160 | 250 | 190 | 150 | 230 | 48 | 160 | 86 | 83 | 31/60 | 227
8 | 2460 ± 40 |  | COc1cccc2c1C(=O)c1c(O)c3c(c(O)c1C2=O)C[C@@](O)(C(=O)CO)C[C@@H]3O[C@H]1C[C@H](N)[C@H](O)[C@H](C)O1 [doxorubicin, reference compound] |  |  |  |  |  |  |  |  |  |  |  |  |  |  |  | 
